Measured values: ChEMBL document CHEMBL1909629, “Discovery of novel 3,5-disubstituted indole derivatives as potent inhibitors of Pim-1, Pim-2, and Pim-3 protein kinases” (Bioorg Med Chem Lett, 2011)

Tests used:
[1] = molecular target: Serine/threonine-protein kinase pim-3 (Homo sapiens, UniProt Q86V86); experiment: Inhibition of PIM3 using BAD peptide as substrate preincubated for 15 mins measured after 60 to 100 mins by luminescence assay
[2] = molecular target: Serine/threonine-protein kinase pim-1 (Homo sapiens, UniProt P11309); experiment: Inhibition of PIM1 using BAD peptide as substrate preincubated for 15 mins measured after 60 to 100 mins by luminescence assay
[3] = molecular target: Serine/threonine-protein kinase pim-2 (Homo sapiens, UniProt Q9P1W9); experiment: Inhibition of PIM2 using BAD peptide as substrate preincubated for 15 mins measured after 60 to 100 mins by luminescence assay
[4] = Inhibition of PDGFR
[5] = molecular target: Vascular endothelial growth factor receptor 2 (Homo sapiens, UniProt P35968); experiment: Inhibition of KDR
[6] = molecular target: Mast/stem cell growth factor receptor Kit (Homo sapiens, UniProt P10721); experiment: Inhibition of cKIT
[7] = molecular target: T1, Receptor-type tyrosine-protein kinase FLT3 (Homo sapiens, UniProt P36888); experiment: Inhibition of FLT3
T1 sequence (P36888 whole entry): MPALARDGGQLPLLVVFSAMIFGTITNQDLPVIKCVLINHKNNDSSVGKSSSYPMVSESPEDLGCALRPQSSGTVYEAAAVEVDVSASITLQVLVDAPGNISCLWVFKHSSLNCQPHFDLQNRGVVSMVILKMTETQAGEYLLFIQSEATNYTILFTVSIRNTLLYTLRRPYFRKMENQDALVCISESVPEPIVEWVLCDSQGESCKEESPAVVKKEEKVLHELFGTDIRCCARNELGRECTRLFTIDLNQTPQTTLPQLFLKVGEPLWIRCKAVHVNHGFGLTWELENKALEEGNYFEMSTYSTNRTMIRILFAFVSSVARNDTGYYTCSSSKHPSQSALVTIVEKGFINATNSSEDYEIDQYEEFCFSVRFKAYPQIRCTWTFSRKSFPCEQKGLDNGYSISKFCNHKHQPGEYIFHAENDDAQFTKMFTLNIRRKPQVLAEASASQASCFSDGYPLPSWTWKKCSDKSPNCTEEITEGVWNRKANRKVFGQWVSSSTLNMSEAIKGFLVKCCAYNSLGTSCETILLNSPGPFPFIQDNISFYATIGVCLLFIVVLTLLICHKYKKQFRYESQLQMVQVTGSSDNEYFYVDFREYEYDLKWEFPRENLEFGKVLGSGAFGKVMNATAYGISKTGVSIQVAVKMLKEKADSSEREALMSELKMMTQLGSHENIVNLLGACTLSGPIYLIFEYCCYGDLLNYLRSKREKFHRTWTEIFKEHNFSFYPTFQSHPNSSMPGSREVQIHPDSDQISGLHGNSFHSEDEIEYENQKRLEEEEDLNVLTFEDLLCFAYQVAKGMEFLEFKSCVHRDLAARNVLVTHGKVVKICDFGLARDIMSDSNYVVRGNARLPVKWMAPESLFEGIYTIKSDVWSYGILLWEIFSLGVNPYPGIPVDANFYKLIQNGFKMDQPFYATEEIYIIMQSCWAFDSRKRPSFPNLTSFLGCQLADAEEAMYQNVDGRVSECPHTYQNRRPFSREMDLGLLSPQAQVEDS

Chain of Serine/threonine-protein kinase pim-2 (Q9P1W9 whole entry): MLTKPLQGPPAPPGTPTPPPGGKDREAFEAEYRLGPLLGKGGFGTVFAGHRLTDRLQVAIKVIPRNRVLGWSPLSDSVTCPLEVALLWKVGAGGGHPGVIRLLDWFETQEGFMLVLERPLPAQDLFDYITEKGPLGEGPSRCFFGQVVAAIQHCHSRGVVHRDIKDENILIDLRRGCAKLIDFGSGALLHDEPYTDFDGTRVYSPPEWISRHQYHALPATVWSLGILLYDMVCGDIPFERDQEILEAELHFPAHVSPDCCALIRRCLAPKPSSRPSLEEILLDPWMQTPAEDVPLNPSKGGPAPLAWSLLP
Chain of Mast/stem cell growth factor receptor Kit (P10721 whole entry): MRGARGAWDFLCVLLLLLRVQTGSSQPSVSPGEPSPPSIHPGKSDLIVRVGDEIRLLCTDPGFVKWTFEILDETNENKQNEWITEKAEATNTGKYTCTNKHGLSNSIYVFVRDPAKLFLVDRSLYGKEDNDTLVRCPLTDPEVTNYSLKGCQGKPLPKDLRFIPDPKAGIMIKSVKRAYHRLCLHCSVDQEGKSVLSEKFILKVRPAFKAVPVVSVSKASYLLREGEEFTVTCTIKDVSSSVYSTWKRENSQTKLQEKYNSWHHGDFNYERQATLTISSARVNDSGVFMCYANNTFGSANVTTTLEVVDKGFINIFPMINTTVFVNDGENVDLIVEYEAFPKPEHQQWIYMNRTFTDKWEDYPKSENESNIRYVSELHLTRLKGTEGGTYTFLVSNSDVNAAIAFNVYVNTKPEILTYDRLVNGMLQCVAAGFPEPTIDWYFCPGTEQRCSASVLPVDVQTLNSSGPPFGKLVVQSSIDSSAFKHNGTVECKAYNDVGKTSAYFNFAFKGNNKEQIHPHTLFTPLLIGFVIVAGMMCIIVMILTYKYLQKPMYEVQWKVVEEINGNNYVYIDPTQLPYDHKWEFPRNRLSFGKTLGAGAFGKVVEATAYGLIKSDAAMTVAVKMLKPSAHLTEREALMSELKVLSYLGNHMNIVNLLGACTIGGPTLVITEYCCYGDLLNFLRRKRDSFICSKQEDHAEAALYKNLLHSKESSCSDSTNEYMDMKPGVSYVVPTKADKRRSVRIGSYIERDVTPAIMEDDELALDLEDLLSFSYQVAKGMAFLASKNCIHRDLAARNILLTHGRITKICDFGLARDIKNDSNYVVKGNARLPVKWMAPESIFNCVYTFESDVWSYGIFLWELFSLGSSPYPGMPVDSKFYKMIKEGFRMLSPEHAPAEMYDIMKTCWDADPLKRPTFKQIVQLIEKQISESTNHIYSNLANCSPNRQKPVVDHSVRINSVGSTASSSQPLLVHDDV
Chain of Serine/threonine-protein kinase pim-1 (P11309 whole entry): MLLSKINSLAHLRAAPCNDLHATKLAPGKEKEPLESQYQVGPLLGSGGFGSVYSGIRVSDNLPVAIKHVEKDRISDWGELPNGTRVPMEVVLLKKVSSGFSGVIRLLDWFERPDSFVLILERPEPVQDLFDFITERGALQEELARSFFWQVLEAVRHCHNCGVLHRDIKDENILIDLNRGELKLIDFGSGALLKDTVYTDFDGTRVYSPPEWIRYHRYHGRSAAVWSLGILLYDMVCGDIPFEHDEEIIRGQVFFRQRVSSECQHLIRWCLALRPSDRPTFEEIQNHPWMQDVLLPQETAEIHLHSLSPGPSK
Chain of Vascular endothelial growth factor receptor 2 (P35968 whole entry): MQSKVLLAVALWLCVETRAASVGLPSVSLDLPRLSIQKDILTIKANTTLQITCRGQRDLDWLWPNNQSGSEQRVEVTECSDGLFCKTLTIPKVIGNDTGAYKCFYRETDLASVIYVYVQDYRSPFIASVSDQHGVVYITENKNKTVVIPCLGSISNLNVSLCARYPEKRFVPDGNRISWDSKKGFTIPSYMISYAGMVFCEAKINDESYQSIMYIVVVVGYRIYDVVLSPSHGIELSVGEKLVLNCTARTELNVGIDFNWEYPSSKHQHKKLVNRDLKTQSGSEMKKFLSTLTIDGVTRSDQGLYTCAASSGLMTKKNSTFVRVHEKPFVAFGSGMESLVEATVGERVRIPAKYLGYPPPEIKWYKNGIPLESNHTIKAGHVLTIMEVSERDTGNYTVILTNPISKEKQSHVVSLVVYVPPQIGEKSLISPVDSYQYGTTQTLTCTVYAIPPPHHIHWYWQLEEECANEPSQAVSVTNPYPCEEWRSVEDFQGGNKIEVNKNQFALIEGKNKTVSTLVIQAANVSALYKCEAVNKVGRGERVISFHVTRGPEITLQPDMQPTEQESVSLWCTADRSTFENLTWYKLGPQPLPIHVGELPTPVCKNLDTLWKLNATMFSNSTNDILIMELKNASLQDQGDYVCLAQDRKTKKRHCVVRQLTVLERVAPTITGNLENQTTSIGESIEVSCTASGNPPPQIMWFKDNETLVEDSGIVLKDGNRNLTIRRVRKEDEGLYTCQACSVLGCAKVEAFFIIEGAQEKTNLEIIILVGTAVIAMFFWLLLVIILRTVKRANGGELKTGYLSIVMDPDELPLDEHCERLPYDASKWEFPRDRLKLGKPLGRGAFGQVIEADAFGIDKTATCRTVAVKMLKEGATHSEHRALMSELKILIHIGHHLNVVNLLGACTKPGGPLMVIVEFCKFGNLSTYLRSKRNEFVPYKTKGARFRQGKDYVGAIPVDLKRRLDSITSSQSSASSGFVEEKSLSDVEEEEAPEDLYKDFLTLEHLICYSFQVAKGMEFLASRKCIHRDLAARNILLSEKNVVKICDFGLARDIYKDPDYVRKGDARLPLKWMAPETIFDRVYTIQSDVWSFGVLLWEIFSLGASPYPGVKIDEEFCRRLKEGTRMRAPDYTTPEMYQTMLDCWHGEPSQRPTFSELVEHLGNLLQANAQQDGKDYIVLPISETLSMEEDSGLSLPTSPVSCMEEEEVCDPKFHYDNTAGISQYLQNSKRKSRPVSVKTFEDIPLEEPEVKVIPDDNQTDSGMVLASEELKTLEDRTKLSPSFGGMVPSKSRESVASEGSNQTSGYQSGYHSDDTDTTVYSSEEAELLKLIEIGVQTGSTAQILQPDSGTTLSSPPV

## c1ncc(-c2ccc3[nH]cc(-c4ccc(N5CCNCC5)cc4)c3c2)cn1
[1]
  IC50: 3.3 µM
[2]
  IC50: 2.6 µM
[3]
  IC50: > 25 µM

## Oc1ccc(-c2ccc3c(-c4ccc(N5CCNCC5)cc4)c[nH]c3n2)cc1
[1]
  IC50: 0.058 µM
[4]
  IC50: 0.987 µM
[5]
  IC50: 4.76 µM
[2]
  IC50: 0.03 µM
[6]
  IC50: 1.11 µM
[7]
  IC50: 0.111 µM
[3]
  IC50: 0.283 µM

## Oc1ccc(-c2ccc3c(-c4ccc(N5CCNCC5)cc4)n[nH]c3n2)cc1
[1]
  IC50: 0.012 µM
[4]
  IC50: 0.006 µM
[5]
  IC50: 0.018 µM
[2]
  IC50: 0.009 µM
[6]
  IC50: 0.007 µM
[7]
  IC50: 0.004 µM
[3]
  IC50: 0.039 µM

## Oc1ccc(-c2ccc3c(-c4ccc(N5CCNCC5)cc4)c[nH]c3c2)cc1
[1]
  IC50: 0.022 µM
[5]
  IC50: > 25 µM
[2]
  IC50: 0.004 µM
[6]
  IC50: > 25 µM
[7]
  IC50: > 25 µM
[3]
  IC50: 0.042 µM

## c1ccc(-c2ccc3c(-c4ccc(N5CCNCC5)cc4)n[nH]c3n2)cc1
[1]
  IC50: 7.4 µM
[2]
  IC50: 1.7 µM
[3]
  IC50: 7.2 µM

## COc1ccc(-c2ccc3c(-c4ccc(N5CCNCC5)cc4)n[nH]c3n2)cc1
[1]
  IC50: 12.8 µM
[2]
  IC50: 4.9 µM
[3]
  IC50: > 25 µM

## c1cc(-c2ccc3c(-c4ccc(N5CCNCC5)cc4)n[nH]c3n2)ccn1
[1]
  IC50: 5.8 µM
[2]
  IC50: 2.5 µM
[3]
  IC50: > 25 µM

## Nc1ccc(-c2ccc3c(-c4ccc(N5CCNCC5)cc4)n[nH]c3n2)cn1
[1]
  IC50: 12 µM
[2]
  IC50: 15 µM
[3]
  IC50: > 25 µM

## Nc1cc(-c2ccc3c(-c4ccc(N5CCNCC5)cc4)n[nH]c3n2)ccn1
[1]
  IC50: 1.8 µM
[2]
  IC50: 0.17 µM
[3]
  IC50: 20 µM

## NS(=O)(=O)c1ccc(-c2ccc3c(-c4ccc(N5CCNCC5)cc4)n[nH]c3n2)cc1
[1]
  IC50: 10 µM
[2]
  IC50: 11 µM
[3]
  IC50: > 25 µM

## c1cc(-c2ccc3c(-c4ccc(N5CCNCC5)cc4)n[nH]c3n2)c2cc[nH]c2c1
[1]
  IC50: 0.26 µM
[2]
  IC50: 0.11 µM
[3]
  IC50: 0.65 µM

## c1cncc(-c2ccc3[nH]cc(-c4ccc(N5CCNCC5)cc4)c3c2)c1
[1]
  IC50: 0.49 µM
[2]
  IC50: 0.192 µM
[3]
  IC50: 15 µM

## c1cc(-c2ccc3[nH]cc(-c4ccc(N5CCNCC5)cc4)c3c2)ccn1
[1]
  IC50: 5.7 µM
[2]
  IC50: 2.8 µM
[3]
  IC50: > 25 µM

## c1ccc(-c2ccc3[nH]cc(-c4ccc(N5CCNCC5)cc4)c3c2)nc1
[1]
  IC50: 14 µM
[2]
  IC50: 2.1 µM
[3]
  IC50: > 25 µM

## c1cnc(-c2ccc3[nH]cc(-c4ccc(N5CCNCC5)cc4)c3c2)cn1
[1]
  IC50: 0.96 µM
[2]
  IC50: 0.53 µM
[3]
  IC50: 13.6 µM

## Nc1ccc(-c2c[nH]c3ccc(-c4cnccn4)cc23)c(F)n1
[1]
  IC50: 0.31 µM
[2]
  IC50: 0.25 µM
[3]
  IC50: 5 µM

## Nc1ccc(-c2c[nH]c3ccc(-c4cncc(O[C@H]5CC[C@H](N)CC5)n4)cc23)c(F)n1
[1]
  IC50: 0.005 µM
[2]
  IC50: < 0.002 µM
[3]
  IC50: 0.083 µM

## Nc1ccc(-c2c[nH]c3ccc(-c4cncc(N5CCNCC5)n4)cc23)c(F)n1
[1]
  IC50: 0.004 µM
[2]
  IC50: < 0.002 µM
[3]
  IC50: 0.061 µM

## Nc1ccc(-c2c[nH]c3ccc(-c4cncc(N5CCCC(N)C5)n4)cc23)c(F)n1 (stereo unspecified)
[1]
  IC50: 0.003 µM
[2]
  IC50: < 0.002 µM
[3]
  IC50: 0.081 µM

## C[C@H](N)COc1cncc(-c2ccc3[nH]cc(-c4ccc(N)nc4F)c3c2)n1
[1]
  IC50: < 0.002 µM
[2]
  IC50: < 0.002 µM
[3]
  IC50: 0.056 µM

## CC[C@H](N)COc1cncc(-c2ccc3[nH]cc(-c4ccc(N)nc4F)c3c2)n1
[1]
  IC50: 0.005 µM
[2]
  IC50: < 0.002 µM
[3]
  IC50: 0.026 µM

## CC(C)[C@H](N)COc1cncc(-c2ccc3[nH]cc(-c4ccc(N)nc4F)c3c2)n1
[1]
  IC50: 0.006 µM
[2]
  IC50: < 0.002 µM
[3]
  IC50: 0.072 µM

## CC(C)(C)[C@H](N)COc1cncc(-c2ccc3[nH]cc(-c4ccc(N)nc4F)c3c2)n1
[1]
  IC50: 0.01 µM
[2]
  IC50: < 0.002 µM
[3]
  IC50: 0.122 µM

## Nc1ccc(-c2c[nH]c3ccc(-c4cncc(OC[C@@H](N)c5ccccc5)n4)cc23)c(F)n1
[1]
  IC50: < 0.002 µM
[2]
  IC50: < 0.002 µM
[3]
  IC50: 0.01 µM

## Nc1ccc(-c2c[nH]c3ccc(-c4cncc(OC[C@H](N)c5ccccc5)n4)cc23)c(F)n1
[1]
  IC50: 0.005 µM
[2]
  IC50: < 0.002 µM
[3]
  IC50: 0.02 µM
